Patent US7485651B2, “Compounds with activity on muscarinic receptors” (Acadia Pharmaceuticals, Inc., priority 1998, dated 2009)

Columns and labels:
m1 receptor = biological target: T1, m1 receptor (Homo sapiens, UniProt P11229); test: R-SAT / NIH 3T3 cells transfected with m1 muscarinic receptor; assay type: cell-based; settings: NIH3T3; m1; compound at 1.5 μM; maximum = response to 10 μM carbachol; read-out: Cellular response as a percentage of the maximum response of the cells
T1 construct: expressed in transfected cells; host or cells: NIH 3T3 (ATCC CRL 1658)
T1 sequence (P11229 1-460): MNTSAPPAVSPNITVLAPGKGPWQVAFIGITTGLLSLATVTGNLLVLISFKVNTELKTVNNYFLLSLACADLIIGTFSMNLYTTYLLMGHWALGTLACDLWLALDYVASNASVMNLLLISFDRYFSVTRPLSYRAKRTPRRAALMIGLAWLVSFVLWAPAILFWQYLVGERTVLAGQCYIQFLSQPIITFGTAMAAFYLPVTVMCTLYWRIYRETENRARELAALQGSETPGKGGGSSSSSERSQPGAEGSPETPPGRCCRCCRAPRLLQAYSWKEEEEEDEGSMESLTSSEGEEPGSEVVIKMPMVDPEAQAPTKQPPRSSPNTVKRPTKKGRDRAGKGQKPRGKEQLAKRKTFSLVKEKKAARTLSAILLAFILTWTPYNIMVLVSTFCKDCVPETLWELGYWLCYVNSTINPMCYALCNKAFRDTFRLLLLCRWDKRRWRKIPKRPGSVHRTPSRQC
Protocol: Cell amplification is detected as increased levels of a marker also expressed by the cells.
The cells were treated with trypsin-EDTA, spun down and plated at 2×10^6 per 15 cm dish in 20 m1 of DMEM containing 10% calf serum.
(§1) On day one, the cells were transfected using the Superfect transfection reagent (available from Qiagen, Valencia, Calif.) in accordance with the manufacturer's instructions. Receptor DNA, β-gal DNA (pSI-β-galactosidase available from Promega, Madison, Wis.), chimeric Gq-i5 DNA for the m2 and m4 receptor subtype assays, and salmon sperm DNA (available from Sigma, St. Louis, […].) as filler to a total of 20 μg DNA was added per plate. Prior to addition to the plates, 60 μl Superfect was added to the DNA and mixed thoroughly by pipetting up and down several times. The mixture was incubated at room temperature for 10-15 minutes. The media were aspirated, and 12 ml fresh DMEM containing 10% calf serum and 50 units/m1 penicillin/streptomycin was added to the plates. The DNA-Superfect solution was mixed once more with a pipette and added to the plate which was swirled to distribute the DNA mixture evenly over the surface. The cells were incubated overnight at 37° C. and 5% CO2. After incubation, the media were aspirated and the plates were rinsed once with a 15 m1 volume of Hank's Buffered Saline. The plates were swirled to ensure thorough rinsing. 20 m1 fresh DMEM supplemented with 10% calf serum and 50 units/m1 penicillin/streptomycin was added to the plates. The cells were incubated for 24-48 hours until the plates were 100% confluent.
(§2) Assay of NIH 3T3 cells transfected with muscarinic receptor subtypes (general procedure) DMEM containing 2% Cyto-SF3 was heated at 37° C. in a water bath under sterile conditions. Sterile working stock solutions of test compounds to be assayed were prepared by diluting the compounds in DMEM to 8× the final concentration for testing. The compound (carbachol) to be included in the assay as a positive control was also diluted in DMEM to 8× the final concentration. 50 μL of the DMEM containing 2% Cyto-SF3 was added to each well of 96-well microtiter plates under sterile conditions. Then, 16 of compound solutions were added to the top wells of the plates, and dilution of the solutions was performed by taking 16 μl of the compound solutions from the top wells and pipetting them into the next row of wells. This procedure was repeated with each subsequent row of wells, except that 50 μl medium alone was added to the baseline control wells (the wells that contain medium and cells, but not test compounds) and plate control wells (wells containing medium, but not test compounds and cells). The plates were then placed in an incubator at 37° C. to equilibrate temperature and pH.
When the cell cultures had reached 100% confluence, the medium was aspirated and each plate was rinsed with 15 m1 Hank's Buffered Saline (HBS). The cells were left in the incubator for about 10-15 minutes until the HBS had turned slightly yellow. The HBS was then aspirated and 1 m1 trypsin was added to each plate and swirled so as to completely cover the plates. The edges of the plates were gently rapped several times to loosen the cells. After the cells had been dislodged from the surface, 8 m1 DMEM containing 10% calf serum and 50 units/m1 penicillin and 50 units/m1 streptomycin was added to inhibit the trypsin. The plates were rinsed with this medium, and the cells were pipetted into a tube. The cells were centrifuged at 1000 rpm for 5-10 min. in an IEC Centra CL2 centrifuge (produced by Sorvall). Afterwards, the medium was carefully aspirated so as not to dislodge the cells. The cell pellet was suspended in 1600 μl DMEM containing 10% calf serum and 50 units/m1 penicillin and 50 units/m1 streptomycin, after which 20 m1 DMEM supplemented with 2% Cyto-SF3 was added. 50 μl aliquots of this cell suspension was added to the wells of the 96-well microtiter plates prepared above (except for the plate control wells).

m3 receptor = biological target: T2, m3 receptor (Homo sapiens, UniProt P20309); test: R-SAT / NIH 3T3 cells transfected with m3 muscarinic receptor; assay type: cell-based; settings: NIH3T3; m3; compound at 1.5 μM; maximum = response to 10 μM carbachol; read-out: Cellular response as a percentage of the maximum response of the cells
T2 construct: expressed in transfected cells; host or cells: NIH 3T3 (ATCC CRL 1658)
T2 sequence (P20309 whole entry): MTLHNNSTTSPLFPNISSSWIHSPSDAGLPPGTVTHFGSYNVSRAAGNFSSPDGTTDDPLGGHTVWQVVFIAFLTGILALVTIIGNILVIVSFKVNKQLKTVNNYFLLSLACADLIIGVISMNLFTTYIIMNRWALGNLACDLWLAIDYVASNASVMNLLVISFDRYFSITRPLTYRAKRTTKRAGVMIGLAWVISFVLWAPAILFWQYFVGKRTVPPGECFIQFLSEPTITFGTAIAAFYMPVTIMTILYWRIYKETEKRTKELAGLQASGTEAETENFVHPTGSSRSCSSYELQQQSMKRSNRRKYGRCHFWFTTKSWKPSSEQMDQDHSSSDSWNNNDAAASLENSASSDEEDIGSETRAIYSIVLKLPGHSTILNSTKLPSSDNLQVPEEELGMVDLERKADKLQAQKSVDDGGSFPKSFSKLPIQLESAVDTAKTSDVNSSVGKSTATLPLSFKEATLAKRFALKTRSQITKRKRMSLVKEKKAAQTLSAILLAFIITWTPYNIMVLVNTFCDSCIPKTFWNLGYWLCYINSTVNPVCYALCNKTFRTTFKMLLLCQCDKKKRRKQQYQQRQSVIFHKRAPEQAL
From the text: (§3) A particularly convenient functional assay system is the receptor selection and amplification assay disclosed in U.S. Pat. No. 5,707,798 describing a method of screening for bioactive compounds by utilizing the ability of cells transfected with receptor DNA, e.g. coding for the different muscarinic subtypes, to amplify in the presence of a ligand of the receptor. Cell amplification is detected as increased levels of a marker also expressed by the cells.
(§4) Transfection of cells with muscarinic receptor DNAs (general procedure) NIH 3T3 cells (available from the American Type Culture Collection as ATCC CRL 1658) were grown at 37° C. in a humidified atmosphere (5% CO2) incubator in Dulbecco's modified Eagle's medium (DMEM) supplemented with 4.5 g/l glucose, 4 mM glutamine, 50 units/m1 penicillin, 50 units/m1 streptomycin (available from Advanced Biotechnologies, Inc., Gaithersburg, Md.) and 10% calf serum (available from Sigma, St. Louis, […].). The cells were treated with trypsin-EDTA, spun down and plated at 2×10^6 per 15 cm dish in 20 m1 of DMEM containing 10% calf serum.
(§5) The m1-m5 muscarinic receptor subtypes were cloned substantially as described by Bonner et al., Science 237, 1987, p. 527, and Bonner et al., Neuron 1, 1988, p. 403. For the m2 and m4 receptors, the cells were co-transfected with DNA encoding a chimera between the Gq protein and the five carboxy-terminal amino acids of the Gi protein (the Gq-i5 construct is described by Conklin et al., Nature 363, 1993, p.274).
as §1
as §2, with “The plates were then placed in an incubator at 37° C. to equilibrate temperature and pH.” left out

m5 receptor = biological target: T3, m5 receptor (Homo sapiens, UniProt P08912); test: R-SAT / NIH 3T3 cells transfected with m5 muscarinic receptor; assay type: cell-based; settings: NIH3T3; m5; compound at 1.5 μM; maximum = response to 10 μM carbachol; read-out: Cellular response as a percentage of the maximum response of the cells
T3 construct: expressed in transfected cells; host or cells: NIH 3T3 (ATCC CRL 1658)
T3 sequence (P08912 1-532): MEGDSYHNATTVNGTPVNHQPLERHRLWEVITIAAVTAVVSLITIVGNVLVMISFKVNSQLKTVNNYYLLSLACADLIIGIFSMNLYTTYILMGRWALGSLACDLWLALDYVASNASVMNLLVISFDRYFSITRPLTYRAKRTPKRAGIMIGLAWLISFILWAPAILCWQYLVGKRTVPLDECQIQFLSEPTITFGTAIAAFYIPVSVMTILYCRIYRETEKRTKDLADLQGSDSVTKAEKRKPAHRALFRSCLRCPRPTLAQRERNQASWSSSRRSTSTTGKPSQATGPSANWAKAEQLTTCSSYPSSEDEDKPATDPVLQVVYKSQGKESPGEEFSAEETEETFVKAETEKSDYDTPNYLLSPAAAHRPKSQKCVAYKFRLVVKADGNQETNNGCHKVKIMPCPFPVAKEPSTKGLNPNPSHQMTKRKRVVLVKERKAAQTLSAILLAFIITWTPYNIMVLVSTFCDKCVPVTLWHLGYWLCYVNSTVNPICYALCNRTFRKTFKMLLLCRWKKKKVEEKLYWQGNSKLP
From the text: as §3, §4, §5, §1
as §2, with “The plates were then placed in an incubator at 37° C. to equilibrate temperature and pH.” left out

[1] = human, in vivo; cited from earlier work

| Emax at 1.5 µM (m1 receptor) | Emax at 1.5 µM (m3 receptor) | Emax at 1.5 µM (m5 receptor) | SMILES | patients with elevated liver transaminases (hepatotoxicity) [1] | patients with gastrointestinal side effects [1] |
| --- | --- | --- | --- | --- | --- |
| 65% | 9% | 5% | CCCCC1CCN(CCCC(=O)c2ccccc2OC)CC1 [F, 4-n-Butyl-1-[4-(2-methoxyphenyl)-4-oxo1-butyl]piperidine] | – | – |
| 66% | 16% | 7% | CCCCC1CCN(CCCC(=O)c2ccccc2)CC1 [G, 4-n-Butyl-1-[4-phenyl-4-oxo-1-butyl]piperidine] | – | – |
| 42% | 9% | -3% | CCCCC1CCN(CCCC(=O)c2ccc(C)cc2C)CC1 [E, 4-n-Butyl-1-[4-(2,4-dimethylphenyl)-4-oxo-1-butyl]piperidine] | – | – |

Second part, the molecule before the results:

| SMILES | Emax at 1.5 µM (m1 receptor) | Emax at 1.5 µM (m3 receptor) | Emax at 1.5 µM (m5 receptor) | patients with elevated liver transaminases (hepatotoxicity) [1] | patients with gastrointestinal side effects [1] |
| --- | --- | --- | --- | --- | --- |
| CCCCC1CCN(CCCC(=O)c2ccccc2OCC)CC1 [B, 4-n-Butyl-1-[4-(2ethoxyphenyl)-4-oxo-1-butyl]piperidine] | 76% | 7% | -6% | – | – |
| Nc1c2c(nc3ccccc13)CCCC2 [Tacrine, 9-amino-1,2,3,4-tetrahydroacridine] | – | – | – | about 30% | about a third |
| CCCCC1CCN(CCCC(=O)c2ccccc2O)CC1 [C, 4-n-Butyl-1-[4-(2-hydroxyphenyl)-4-oxo-1-butyl]piperidine] | 91% | 4% | 0% | – | – |
| CCCCC1CCN(CCCC(=O)c2cccc(C)c2C)CC1 [D, 4-n-Butyl-1-[4-(2,3-dimethylphenyl)-4-oxo-1-butyl]piperidine] | 72% | 13% | 2% | – | – |
